Source: PubChem BioAssay (NCI)
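Growth conditions: 96-well plates. Treatment: test compound, 48 hours, 5 concentrations. Analysis: linear interpolation between bracketing concentrations; unreached endpoints set to highest concentration. At the TGI there is no net growth.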

Tests used:
Assay in all cases: DTP human tumour cell line panel, 48 h
[1] = system: MDA-N
[2] = system: SK-MEL-2 melanoma
[3] = system: UO-31 renal
[4] = system: SF-295 CNS
[5] = system: UACC-257 melanoma
[6] = system: PC-3 prostate
[7] = system: TK-10 renal
[8] = system: EKVX NSCLC
[9] = system: COLO 205 colon
[10] = system: DU-145 prostate
[11] = system: RPMI-8226 leukemia
[12] = system: SK-MEL-5 melanoma
[13] = system: NCI/ADR-RES ovarian
[14] = system: SK-OV-3 ovarian
[15] = system: U251 CNS
[16] = system: HCC-2998 colon
[17] = system: MDA-MB-435
[18] = system: NCI-H460 lung
[19] = system: OVCAR-5 ovarian
[20] = system: T-47D breast
[21] = system: SNB-75 CNS
[22] = system: MCF7 breast
[23] = system: K-562 leukemia
[24] = system: HCT-15 colon
[25] = system: CCRF-CEM leukemia
[26] = system: SF-268 CNS
[27] = system: OVCAR-3 ovarian
[28] = system: SK-MEL-28 melanoma
[29] = system: SR leukemia
[30] = system: M14 melanoma
[31] = system: IGROV1 ovarian
[32] = system: NCI-H522 lung
[33] = system: MOLT-4 leukemia
[34] = system: MDA-MB-231 breast
[35] = system: NCI-H23 lung
[36] = system: HS 578T breast
[37] = system: HOP-62 NSCLC
[38] = system: SNB-19 CNS
[39] = system: HT29 colon
[40] = system: UACC-62 melanoma
[41] = system: ACHN renal
[42] = system: HL-60(TB) leukemia
[43] = system: KM12 colon
[44] = system: NCI-H226 lung
[45] = system: BT-549 breast
[46] = system: OVCAR-4 ovarian
[47] = system: 786-0 renal
[48] = system: A549 NSCLC
[49] = system: SN12C renal
[50] = system: RXF 393 renal
[51] = system: SF-539 CNS
[52] = system: HCT-116 colon
[53] = system: CAKI-1 renal
[54] = system: MALME-3M melanoma
[55] = system: OVCAR-8 ovarian
[56] = system: HOP-92 NSCLC

**Q.** How did the TGI [1] turn out when `CC(C)(O)C1CC[C@]2(C)CC[C@]3(C)[C@H](CC[C@@H]4[C@@]5(C)CC[C@H](O)C(C)(C)[C@@H]5CC[C@]43C)[C@@H]12` (stereo partly specified) was run?
**A.** The TGI was over 100 µM.

**Q.** What about the TGI [2] of the same compound?
**A.** Its TGI is 62.5 µM.

**Q.** And the TGI [3]?
**A.** The TGI was over 100 µM.

**Q.** What about the TGI [4] of the same compound?
**A.** The TGI was 57.6 µM.

**Q.** What about the TGI [5] of the same compound?
**A.** Its TGI is 50.2 µM.

**Q.** And the TGI [6]?
**A.** Its TGI is over 100 µM.

**Q.** What about the TGI [7] of the same compound?
**A.** The TGI was 53.3 µM.

**Q.** And the TGI [8]?
**A.** Its TGI is 44.5 µM.

**Q.** What about the TGI [9] of the same compound?
**A.** Its TGI is 92.2 µM.

**Q.** What about the TGI [10] of the same compound?
**A.** The TGI was 57.9 µM.

**Q.** And the TGI [11]?
**A.** The TGI was over 100 µM.

**Q.** What about the TGI [12] of the same compound?
**A.** Its TGI is over 100 µM.

**Q.** And the TGI [13]?
**A.** Its TGI is 82.4 µM.

**Q.** What about the TGI [14] of the same compound?
**A.** Its TGI is 49.3 µM.

**Q.** And the TGI [15]?
**A.** The TGI was over 100 µM.

**Q.** What about the TGI [16] of the same compound?
**A.** Its TGI is 51.9 µM.

**Q.** And the TGI [17]?
**A.** Its TGI is over 100 µM.

**Q.** And the TGI [18]?
**A.** The TGI was over 100 µM.

**Q.** What about the TGI [19] of the same compound?
**A.** The TGI was 75.9 µM.

**Q.** And the TGI [20]?
**A.** The TGI was 66.2 µM.

**Q.** And the TGI [21]?
**A.** Its TGI is 45.7 µM.

**Q.** And the TGI [22]?
**A.** The TGI was over 100 µM.

**Q.** What about the TGI [23] of the same compound?
**A.** The TGI was over 100 µM.

**Q.** And the TGI [24]?
**A.** The TGI was over 100 µM.

**Q.** What about the TGI [25] of the same compound?
**A.** The TGI was over 100 µM.

**Q.** And the TGI [26]?
**A.** The TGI was over 100 µM.

**Q.** What about the TGI [27] of the same compound?
**A.** Its TGI is 50.7 µM.

**Q.** What about the TGI [28] of the same compound?
**A.** The TGI was 67.7 µM.

**Q.** What about the TGI [29] of the same compound?
**A.** The TGI was over 100 µM.

**Q.** What about the TGI [30] of the same compound?
**A.** Its TGI is 95.4 µM.

**Q.** What about the TGI [31] of the same compound?
**A.** Its TGI is 85.8 µM.

**Q.** And the TGI [32]?
**A.** Its TGI is 73.2 µM.

**Q.** And the TGI [33]?
**A.** The TGI was over 100 µM.

**Q.** And the TGI [34]?
**A.** The TGI was over 100 µM.

**Q.** And the TGI [35]?
**A.** Its TGI is over 100 µM.

**Q.** What about the TGI [36] of the same compound?
**A.** The TGI was 68.1 µM.

**Q.** And the TGI [37]?
**A.** Its TGI is 84.3 µM.

**Q.** What about the TGI [38] of the same compound?
**A.** The TGI was over 100 µM.

**Q.** And the TGI [39]?
**A.** Its TGI is over 100 µM.

**Q.** And the TGI [40]?
**A.** The TGI was over 100 µM.

**Q.** And the TGI [41]?
**A.** The TGI was 71.3 µM.

**Q.** And the TGI [42]?
**A.** Its TGI is over 100 µM.

**Q.** And the TGI [43]?
**A.** The TGI was 89.3 µM.

**Q.** What about the TGI [44] of the same compound?
**A.** The TGI was over 100 µM.

**Q.** What about the TGI [45] of the same compound?
**A.** The TGI was 60.9 µM.

**Q.** What about the TGI [46] of the same compound?
**A.** Its TGI is 78.3 µM.

**Q.** What about the TGI [47] of the same compound?
**A.** The TGI was 78.1 µM.

**Q.** What about the TGI [48] of the same compound?
**A.** Its TGI is over 100 µM.

**Q.** What about the TGI [49] of the same compound?
**A.** The TGI was over 100 µM.

**Q.** What about the TGI [50] of the same compound?
**A.** The TGI was over 100 µM.

**Q.** What about the TGI [51] of the same compound?
**A.** The TGI was 55.4 µM.

**Q.** What about the TGI [52] of the same compound?
**A.** Its TGI is 59.4 µM.

**Q.** What about the TGI [53] of the same compound?
**A.** The TGI was 45.6 µM.

**Q.** And the TGI [54]?
**A.** Its TGI is 57.7 µM.

**Q.** And the TGI [55]?
**A.** Its TGI is over 100 µM.

**Q.** What about the TGI [56] of the same compound?
**A.** The TGI was 44.1 µM.
